Measurements from patent publication US12077503B2, “Substituted cyclic amides and their use as herbicides” (FMC CORPORATION, priority 2015, dated 2024).
Like-named read-outs stand apart in the source and are kept apart here.

How the values were obtained:
Type in all cases: in vivo
[1] = test system: Kochia (Kochia scoparia); experiment: Test A preemergence; settings: Bassia scoparia, pre-emergence, 240 h, preemergence, read-out: Kochia plant response rating; for pest or weed control at 125 g/ha: 125 g ai/ha, approx. 10 d; for pest or weed control at 500 g/ha: 500 g ai/ha
Method in brief: (§1)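 Seeded soil received test chemicals as a preemergence directed spray, and seedlings at one to two leaves, 2–10 cm tall, received them postemergence, in a non-phytotoxic, surfactant-containing solvent mixture. Pots were held in a greenhouse for approximately 10 d, then rated for injury from 0, no effect, to 100, complete control.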

[2] = test system: barnyardgrass (Echinochloa crus-galli); experiment: Test A preemergence; settings: Echinochloa crus-galli, pre-emergence, 240 h, preemergence, read-out: Barnyardgrass plant response rating; for pest or weed control at 125 g/ha: 125 g ai/ha, approx. 10 d; for pest or weed control at 500 g/ha: 500 g ai/ha
Method in brief: as §1

[3] = test system: ragweed (common ragweed, Ambrosia elatior); experiment: Test A preemergence; settings: Ambrosia artemisiifolia, pre-emergence, 240 h, preemergence, read-out: Ragweed plant response rating; for pest or weed control at 125 g/ha: 125 g ai/ha, approx. 10 d; for pest or weed control at 500 g/ha: 500 g ai/ha
Method in brief: as §1

[4] = test system: pigweed (Amaranthus retroflexus); experiment: Test A preemergence; settings: Amaranthus retroflexus, pre-emergence, 240 h, preemergence, read-out: Pigweed plant response rating; for pest or weed control at 125 g/ha: 125 g ai/ha, approx. 10 d; for pest or weed control at 500 g/ha: 500 g ai/ha
[5] = test system: ryegrass, Italian (Italian ryegrass, Lolium multiflorum); experiment: Test A preemergence; settings: Lolium multiflorum, pre-emergence, 240 h, preemergence, read-out: Ryegrass, Italian plant response rating; for pest or weed control at 125 g/ha: 125 g ai/ha, approx. 10 d; for pest or weed control at 500 g/ha: 500 g ai/ha
Method in brief: as §1

[6] = test system: wheat (Triticum aestivum); experiment: Test A postemergence; settings: Triticum aestivum, post-emergence, 240 h, postemergence; for plant injury at 125 g/ha: 125 g ai/ha; for plant injury at 500 g/ha: 500 g ai/ha, 0 to 100 scale, 0 is no effect, 100 is complete control
Method in brief: as §1

[7] = test system: giant foxtail (Setaria faberii); experiment: Test A postemergence; settings: Setaria faberi, post-emergence, 240 h, postemergence; for pest or weed control at 125 g/ha: 125 g ai/ha; for pest or weed control at 500 g/ha: 500 g ai/ha, 0 to 100 scale, 0 is no effect, 100 is complete control
Method in brief: as §1

[8] = test system: Galium (catchweed bedstraw, Galium aparine); experiment: Test A postemergence; settings: Galium, post-emergence, 240 h, postemergence; for pest or weed control at 125 g/ha: 125 g ai/ha; for pest or weed control at 500 g/ha: 500 g ai/ha, 0 to 100 scale, 0 is no effect, 100 is complete control
Method in brief: as §1

[9] = test system: Kochia (Kochia scoparia); experiment: Test A postemergence; settings: Bassia scoparia, post-emergence, 240 h, postemergence; for pest or weed control at 125 g/ha: 125 g ai/ha; for pest or weed control at 500 g/ha: 500 g ai/ha, 0 to 100 scale, 0 is no effect, 100 is complete control
Method in brief: as §1

[10] = test system: blackgrass (Alopecurus myosuroides); experiment: Test A postemergence; settings: Alopecurus myosuroides, post-emergence, 240 h, postemergence; for pest or weed control at 125 g/ha: 125 g ai/ha; for pest or weed control at 500 g/ha: 500 g ai/ha, 0 to 100 scale, 0 is no effect, 100 is complete control
Method in brief: as §1

[11] = test system: barnyardgrass (Echinochloa crus-galli); experiment: Test A postemergence; settings: Echinochloa crus-galli, post-emergence, 240 h, postemergence; for pest or weed control at 125 g/ha: 125 g ai/ha; for pest or weed control at 500 g/ha: 500 g ai/ha, 0 to 100 scale, 0 is no effect, 100 is complete control
Method in brief: as §1

[12] = test system: ragweed (common ragweed, Ambrosia elatior); experiment: Test A postemergence; settings: Ambrosia artemisiifolia, post-emergence, 240 h, postemergence; for pest or weed control at 125 g/ha: 125 g ai/ha; for pest or weed control at 500 g/ha: 500 g ai/ha, 0 to 100 scale, 0 is no effect, 100 is complete control
Method in brief: as §1

[13] = test system: corn (Zea mays); experiment: Test A postemergence; settings: Zea mays, post-emergence, 240 h, postemergence; for plant injury at 125 g/ha: 125 g ai/ha; for plant injury at 500 g/ha: 500 g ai/ha, 0 to 100 scale, 0 is no effect, 100 is complete control
Method in brief: as §1

[14] = test system: pigweed (Amaranthus retroflexus); experiment: Test A postemergence; settings: Amaranthus retroflexus, post-emergence, 240 h, postemergence; for pest or weed control at 125 g/ha: 125 g ai/ha; for pest or weed control at 500 g/ha: 500 g ai/ha, 0 to 100 scale, 0 is no effect, 100 is complete control
Method in brief: as §1

[15] = test system: ryegrass, Italian (Italian ryegrass, Lolium multiflorum); experiment: Test A postemergence; settings: Lolium multiflorum, post-emergence, 240 h, postemergence; for pest or weed control at 125 g/ha: 125 g ai/ha; for pest or weed control at 500 g/ha: 500 g ai/ha, 0 to 100 scale, 0 is no effect, 100 is complete control
Method in brief: as §1

[16] = 0 to 100 scale where 0 is no effect and 100 is complete control
[17] = visual injury rating about 10 d after treatment, 0 to 100 scale (0 no effect, 100 complete control)
[18] = read-out: Wheat plant response rating
[19] = read-out: Foxtail, Giant plant response rating
[20] = read-out: Galium plant response rating
[21] = read-out: Kochia plant response rating
[22] = read-out: Blackgrass plant response rating
[23] = read-out: Barnyardgrass plant response rating
[24] = read-out: Ragweed plant response rating
[25] = read-out: Corn plant response rating
[26] = read-out: Pigweed plant response rating
[27] = read-out: Ryegrass, Italian plant response rating

Compound | pest or weed control at 125 g/ha [1, 16] | pest or weed control at 125 g/ha [2, 16] | pest or weed control at 125 g/ha [3, 16] | pest or weed control at 125 g/ha [4, 16] | pest or weed control at 125 g/ha [5, 16] | plant injury at 500 g/ha [6, 18] | pest or weed control at 500 g/ha [7, 19] | pest or weed control at 500 g/ha [8, 20] | pest or weed control at 500 g/ha [9, 21] | pest or weed control at 500 g/ha [10, 22] | pest or weed control at 500 g/ha [11, 23] | pest or weed control at 500 g/ha [12, 24] | plant injury at 500 g/ha [13, 25] | pest or weed control at 500 g/ha [14, 26] | pest or weed control at 500 g/ha [15, 27] | also measured
Cc1cc([C@H]2CN(C)C(=O)[C@@H]2C(=O)Nc2ccc(F)c(F)c2F)ccc1Br [Compound 1101] | 60% | 90% | 0% | 0% | 30% | 50% | 80% | 60% | 60% | 30% | 80% | 0% | 70% | 50% | 60% | pest or weed control at 500 g/ha [1, 17]: 70%; pest or weed control at 500 g/ha [2, 17]: 90%; pest or weed control at 500 g/ha [3, 17]: 40%; pest or weed control at 500 g/ha [4, 17]: 20%; pest or weed control at 500 g/ha [5, 17]: 70%; plant injury at 125 g/ha ([6]; visual injury on 0 to 100 scale (0 no effect, 100 complete control), approx. 10 d, read-out: Wheat plant response rating): 0%; pest or weed control at 125 g/ha ([7]; visual injury on 0 to 100 scale (0 no effect, 100 complete control), approx. 10 d, read-out: Foxtail, Giant plant response rating): 70%; pest or weed control at 125 g/ha ([8]; visual injury on 0 to 100 scale (0 no effect, 100 complete control), approx. 10 d, read-out: Galium plant response rating): 50%; pest or weed control at 125 g/ha ([9]; visual injury on 0 to 100 scale (0 no effect, 100 complete control), approx. 10 d, read-out: Kochia plant response rating): 30%; pest or weed control at 125 g/ha ([10]; visual injury on 0 to 100 scale (0 no effect, 100 complete control), approx. 10 d, read-out: Blackgrass plant response rating): 0%; pest or weed control at 125 g/ha ([11]; visual injury on 0 to 100 scale (0 no effect, 100 complete control), approx. 10 d, read-out: Barnyardgrass plant response rating): 70%; pest or weed control at 125 g/ha ([12]; visual injury on 0 to 100 scale (0 no effect, 100 complete control), approx. 10 d, read-out: Ragweed plant response rating): 0%; plant injury at 125 g/ha ([13]; visual injury on 0 to 100 scale (0 no effect, 100 complete control), approx. 10 d, read-out: Corn plant response rating): 30%; pest or weed control at 125 g/ha ([14]; visual injury on 0 to 100 scale (0 no effect, 100 complete control), approx. 10 d, read-out: Pigweed plant response rating): 30%; pest or weed control at 125 g/ha ([15]; visual injury on 0 to 100 scale (0 no effect, 100 complete control), approx. 10 d, read-out: Ryegrass, Italian plant response rating): 20%
Cc1nc([C@H]2CNC(=O)[C@@H]2C(=O)Nc2cccc(F)c2F)cs1 [Compound 1180] | 0% | 20% | 0% | 0% | 0% | 0% | 0% | 0% | 0% | 0% | 0% | 0% | 0% | 0% | 0% | pest or weed control at 500 g/ha [1, 16]: 30%; pest or weed control at 500 g/ha [2, 16]: 70%; pest or weed control at 500 g/ha [3, 16]: 0%; pest or weed control at 500 g/ha [4, 16]: 0%; pest or weed control at 500 g/ha [5, 16]: 0%; plant injury at 125 g/ha ([6]; visual injury vs untreated controls after approx. 10 d, 0 = no effect, 100 = complete control, read-out: Wheat plant response rating (0 to 100 scale)): 0%; pest or weed control at 125 g/ha ([7]; visual injury vs untreated controls after approx. 10 d, 0 = no effect, 100 = complete control, read-out: Foxtail, Giant plant response rating (0 to 100 scale)): 0%; pest or weed control at 125 g/ha ([8]; visual injury vs untreated controls after approx. 10 d, 0 = no effect, 100 = complete control, read-out: Galium plant response rating (0 to 100 scale)): 0%; pest or weed control at 125 g/ha ([9]; visual injury vs untreated controls after approx. 10 d, 0 = no effect, 100 = complete control, read-out: Kochia plant response rating (0 to 100 scale)): 0%; pest or weed control at 125 g/ha ([10]; visual injury vs untreated controls after approx. 10 d, 0 = no effect, 100 = complete control, read-out: Blackgrass plant response rating (0 to 100 scale)): 0%; pest or weed control at 125 g/ha ([11]; visual injury vs untreated controls after approx. 10 d, 0 = no effect, 100 = complete control, read-out: Barnyardgrass plant response rating (0 to 100 scale)): 0%; pest or weed control at 125 g/ha ([12]; visual injury vs untreated controls after approx. 10 d, 0 = no effect, 100 = complete control, read-out: Ragweed plant response rating (0 to 100 scale)): 0%; plant injury at 125 g/ha ([13]; visual injury vs untreated controls after approx. 10 d, 0 = no effect, 100 = complete control, read-out: Corn plant response rating (0 to 100 scale)): 0%; pest or weed control at 125 g/ha ([14]; visual injury vs untreated controls after approx. 10 d, 0 = no effect, 100 = complete control, read-out: Pigweed plant response rating (0 to 100 scale)): 0%; pest or weed control at 125 g/ha ([15]; visual injury vs untreated controls after approx. 10 d, 0 = no effect, 100 = complete control, read-out: Ryegrass, Italian plant response rating (0 to 100 scale)): 0%
